Values joined by “and” are separate entries in the source; they are usually repeats but may differ in a detail not shown here. Equal entries are not always repeated.
Target: T1, 5-hydroxytryptamine receptor 2C (Rattus norvegicus, UniProt P08909)
T1 sequence (P08909 whole entry): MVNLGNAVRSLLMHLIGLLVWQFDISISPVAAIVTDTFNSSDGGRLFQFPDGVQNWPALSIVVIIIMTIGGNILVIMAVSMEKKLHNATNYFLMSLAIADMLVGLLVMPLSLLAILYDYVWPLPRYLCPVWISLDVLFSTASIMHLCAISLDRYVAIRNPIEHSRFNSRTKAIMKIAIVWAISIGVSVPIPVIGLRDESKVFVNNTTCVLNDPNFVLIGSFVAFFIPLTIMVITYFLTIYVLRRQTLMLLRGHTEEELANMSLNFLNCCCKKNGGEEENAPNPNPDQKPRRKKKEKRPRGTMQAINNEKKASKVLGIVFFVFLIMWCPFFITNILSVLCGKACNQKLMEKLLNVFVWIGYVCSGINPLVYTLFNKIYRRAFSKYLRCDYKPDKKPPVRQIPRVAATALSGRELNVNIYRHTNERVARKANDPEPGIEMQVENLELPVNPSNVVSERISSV

NCCc1c[nH]c2ccc(C(N)=O)cc12 [[3H]-5-carboxamidotryptamine]
Ki: 5810 nM

O=C(c1ccc(F)cc1)C1CCN(CCn2c(=O)[nH]c3ccccc3c2=O)CC1 [3-(2-{4-[(4-fluorophenyl)carbonyl]piperidin-1-yl}ethyl)-1,2,3,4-tetrahydroquinazoline-2,4-dione]
Ki: 103 nM and 94 nM

CC[C@@H](CO)NC(=O)[C@@H]1C=C2c3cccc4c3c(cn4C)C[C@H]2N(C)C1
Ki: 0.8 nM and 1 nM

c1ccc2nc(N3CCNCC3)ccc2c1 [2-Piperazin-1-yl-quinoline (Quipazine)]
Ki: 160 nM and 1340 nM

Source: BindingDB's records for doi:10.1111/j.1749-6632.1998.tb10185.x (Albany Medical College, 1998)
